We go through four molecules from ChEMBL document CHEMBL4371025, “Discovery and evaluation of novel FAAH inhibitors in neuropathic pain model” (Bioorg Med Chem Lett, 2019).

One data set deals with T1, Cytochrome P450 1A2 (Homo sapiens, UniProt P05177).
T1 sequence (P05177 whole entry): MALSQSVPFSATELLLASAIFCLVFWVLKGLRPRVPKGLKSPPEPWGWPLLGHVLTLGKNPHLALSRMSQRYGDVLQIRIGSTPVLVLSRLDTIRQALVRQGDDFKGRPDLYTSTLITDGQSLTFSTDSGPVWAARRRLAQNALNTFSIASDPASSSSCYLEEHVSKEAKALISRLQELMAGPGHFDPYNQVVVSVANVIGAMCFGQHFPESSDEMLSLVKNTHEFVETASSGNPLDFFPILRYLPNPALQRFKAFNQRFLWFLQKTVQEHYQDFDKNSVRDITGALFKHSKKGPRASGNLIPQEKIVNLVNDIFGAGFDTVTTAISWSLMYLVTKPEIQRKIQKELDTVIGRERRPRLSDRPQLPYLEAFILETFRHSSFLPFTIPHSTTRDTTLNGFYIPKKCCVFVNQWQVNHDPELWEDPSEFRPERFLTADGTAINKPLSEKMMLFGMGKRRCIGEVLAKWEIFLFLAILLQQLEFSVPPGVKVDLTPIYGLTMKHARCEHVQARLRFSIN
Description: Inhibition of CYP1A2 in human liver microsomes using phenacetin as substrate preincubated for 5 mins followed by NADPH cofactor addition and measured after 10 mins by LC-MS/MS analysis. Format: ADME. (In general: Microsomes from liver hold many membrane-bound enzymes, among them those of drug oxidation.)

Data set [1] in a line: Drug level in liver of Sprague-Dawley rat at 10 mg/kg, po administered as single dose via gavage measured at 4 hrs by LC-MS/MS analysis. It is filed as ADME, organism-based. The settings on record: read-out: Drug uptake.
Data set [2] is described as follows: Drug level in liver of Sprague-Dawley rat at 10 mg/kg, po administered as single dose via gavage measured at 32 hrs by LC-MS/MS analysis. Format: ADME, organism-based. Conditions: read-out: Drug uptake.
The nature of data set [3]: Drug level in brain of Sprague-Dawley rat at 10 mg/kg, po administered as single dose via gavage measured at 4 hrs by LC-MS/MS analysis. Format: ADME, organism-based. Conditions: read-out: Drug uptake.
The nature of data set [4]: Drug level in liver of Sprague-Dawley rat at 10 mg/kg, po administered as single dose via gavage measured at 2 hrs by LC-MS/MS analysis. It is filed as ADME, organism-based. The settings on record: read-out: Drug uptake.
Data set [5] has as its target T2, Fatty-acid amide hydrolase 1 (Rattus norvegicus, UniProt P97612).
T2 sequence (P97612 whole entry): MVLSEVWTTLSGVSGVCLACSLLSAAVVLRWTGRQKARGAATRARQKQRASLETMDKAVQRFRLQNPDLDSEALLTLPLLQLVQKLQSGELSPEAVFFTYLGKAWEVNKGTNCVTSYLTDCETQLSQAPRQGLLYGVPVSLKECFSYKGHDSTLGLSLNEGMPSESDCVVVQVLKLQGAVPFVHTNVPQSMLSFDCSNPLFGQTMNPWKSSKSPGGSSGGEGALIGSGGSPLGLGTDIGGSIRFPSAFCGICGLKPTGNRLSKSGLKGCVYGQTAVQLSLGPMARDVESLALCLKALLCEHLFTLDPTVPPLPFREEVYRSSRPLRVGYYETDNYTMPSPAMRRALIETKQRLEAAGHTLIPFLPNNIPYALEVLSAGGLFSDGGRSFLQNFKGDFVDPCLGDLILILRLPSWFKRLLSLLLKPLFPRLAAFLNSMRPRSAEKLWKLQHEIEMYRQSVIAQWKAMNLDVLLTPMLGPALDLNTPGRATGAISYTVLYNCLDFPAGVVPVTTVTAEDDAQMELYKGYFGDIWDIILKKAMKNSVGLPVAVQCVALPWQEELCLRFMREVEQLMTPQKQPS
Description: Inhibition of rat FFAH expressed in Escherichia coli using AAMCA as substrate incubated for 1 min measured for 50 mins by fluorescence assay.

Data set [6] in a line: Cmax in Sprague-Dawley rat at 10 mg/kg, po administered as single dose via gavage by LC-MS/MS analysis. It is filed as ADME, organism-based. The arrangement: dose 10 mg/kg, route oral. Conditions: in vivo.
A short description of data set [7]: Drug level in plasma of Sprague-Dawley rat at 10 mg/kg, po administered as single dose via gavage measured at 2 hrs by LC-MS/MS analysis. Format: ADME, organism-based.
A short description of data set [8]: Drug level in brain of Sprague-Dawley rat at 10 mg/kg, po administered as single dose via gavage measured at 32 hrs by LC-MS/MS analysis. It is filed as ADME, organism-based. The settings on record: read-out: Drug uptake.
A short description of data set [9]: Volume of distribution at steady state in Sprague-Dawley rat at 3 mg/kg, iv administered as single dose by LC-MS/MS analysis. Format: ADME, organism-based. Conditions: in vivo, read-out: Vdss.
Data set [10] can be described thus: Drug level in brain of Sprague-Dawley rat at 10 mg/kg, po administered as single dose via gavage measured at 2 hrs by LC-MS/MS analysis. It is filed as ADME, organism-based. The settings on record: read-out: Drug uptake.
A short description of data set [11]: AUC (0 to 48 hrs) in brain of Sprague-Dawley rat at 10 mg/kg, po administered as single dose via gavage by LC-MS/MS analysis. It is filed as ADME, organism-based. The arrangement: dose 10 mg/kg, time < 48 hr, route oral.
Data set [12] is described as follows: AUC (0 to 48 hrs) in Sprague-Dawley rat at 3 mg/kg, iv administered as single dose by LC-MS/MS analysis. The settings on record: in vivo. It is filed as ADME, organism-based. Also noted: dose 3 mg/kg, time < 48 hr, route intravenous.
The next data set deals with Cytochrome P450 2C9 (Homo sapiens, UniProt P11712). Kind of data set: Inhibition of CYP2C9 in human liver microsomes using diclofenac as substrate preincubated for 5 mins followed by NADPH cofactor addition and measured after 10 mins by LC-MS/MS analysis. It is filed as ADME.
Chain of Cytochrome P450 2C9 (P11712 whole entry): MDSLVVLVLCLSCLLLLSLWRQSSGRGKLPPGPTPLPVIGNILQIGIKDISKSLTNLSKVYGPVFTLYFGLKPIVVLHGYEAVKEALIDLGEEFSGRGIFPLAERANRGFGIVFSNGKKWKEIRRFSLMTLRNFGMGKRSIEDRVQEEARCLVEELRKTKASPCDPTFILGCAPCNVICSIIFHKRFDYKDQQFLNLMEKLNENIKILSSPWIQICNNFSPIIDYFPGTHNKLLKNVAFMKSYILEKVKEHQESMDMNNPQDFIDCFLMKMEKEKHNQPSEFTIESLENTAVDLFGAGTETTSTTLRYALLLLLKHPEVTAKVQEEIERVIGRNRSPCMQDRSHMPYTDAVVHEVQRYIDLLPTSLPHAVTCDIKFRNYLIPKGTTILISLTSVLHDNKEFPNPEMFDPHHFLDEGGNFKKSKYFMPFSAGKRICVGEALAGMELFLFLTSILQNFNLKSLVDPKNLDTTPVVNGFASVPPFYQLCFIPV
Data set [13] in a line: Oral bioavailability in Sprague-Dawley rat at 10 mg/kg administered as single dose via gavage by LC-MS/MS analysis. It is filed as ADME, organism-based. Conditions: in vivo.
Data set [14] in a line: AUC (0 to 48 hrs) in plasma of Sprague-Dawley rat at 10 mg/kg, po administered as single dose via gavage by LC-MS/MS analysis. It is filed as ADME, organism-based. The arrangement: time < 48 hr, dose 10 mg/kg, route oral.
The nature of data set [15]: AUC (0 to 48 hrs) in liver of Sprague-Dawley rat at 10 mg/kg, po administered as single dose via gavage by LC-MS/MS analysis. Format: ADME, organism-based. The arrangement: time < 48 hr, dose 10 mg/kg, route oral.
Data set [16] in a line: Drug level in liver of Sprague-Dawley rat at 10 mg/kg, po administered as single dose via gavage measured at 48 hrs by LC-MS/MS analysis. Format: ADME, organism-based. Conditions: read-out: Drug uptake.
Data set [17] is described as follows: Ratio of AUC (0 to 48 hrs) in brain to plasma of Sprague-Dawley rat at 10 mg/kg, po administered as single dose via gavage by LC-MS/MS analysis. Format: ADME, organism-based. Conditions: brain and plasma, read-out: Ratio AUC.
The target in a further data set is Cytochrome P450 2C19 (Homo sapiens, UniProt P33261). Description: Inhibition of CYP2C19 in human liver microsomes using (S)-mephenytoin as substrate preincubated for 5 mins followed by NADPH cofactor addition and measured after 40 mins by LC-MS/MS analysis. Format: ADME.
Chain of Cytochrome P450 2C19 (P33261 whole entry): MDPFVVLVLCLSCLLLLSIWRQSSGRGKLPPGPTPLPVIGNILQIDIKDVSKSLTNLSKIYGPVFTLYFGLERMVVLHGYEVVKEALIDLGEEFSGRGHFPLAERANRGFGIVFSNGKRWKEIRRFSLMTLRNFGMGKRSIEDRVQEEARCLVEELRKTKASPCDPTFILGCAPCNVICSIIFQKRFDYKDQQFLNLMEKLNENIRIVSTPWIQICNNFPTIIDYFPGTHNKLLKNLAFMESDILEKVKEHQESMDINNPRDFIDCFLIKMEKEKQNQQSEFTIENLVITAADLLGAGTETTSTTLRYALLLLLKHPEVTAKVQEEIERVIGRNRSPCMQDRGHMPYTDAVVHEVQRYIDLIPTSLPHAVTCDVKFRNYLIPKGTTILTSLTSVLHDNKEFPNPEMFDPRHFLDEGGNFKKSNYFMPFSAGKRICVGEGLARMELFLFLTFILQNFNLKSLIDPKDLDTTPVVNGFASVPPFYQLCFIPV
Data set [18] in a line: Drug level in plasma of Sprague-Dawley rat at 10 mg/kg, po administered as single dose via gavage measured at 48 hrs by LC-MS/MS analysis. Format: ADME, organism-based.
Data set [19] in a line: Drug level in brain of Sprague-Dawley rat at 10 mg/kg, po administered as single dose via gavage measured at 48 hrs by LC-MS/MS analysis. Format: ADME, organism-based. Conditions: read-out: Drug uptake.
The nature of data set [20]: Drug level in brain of Sprague-Dawley rat at 10 mg/kg, po administered as single dose via gavage measured at 24 hrs by LC-MS/MS analysis. Format: ADME, organism-based. The settings on record: read-out: Drug uptake.
Data set [21] can be described thus: Drug level in liver of Sprague-Dawley rat at 10 mg/kg, po administered as single dose via gavage measured at 8 hrs by LC-MS/MS analysis. Format: ADME, organism-based. The settings on record: read-out: Drug uptake.

Where only a bound is given, the exact number is not on record here.

For orientation: IC50 means the concentration at which inhibition is half-maximal. Higher therefore signals a need for much substance. The Cmax is the highest concentration seen after dosing. As usually defined, the AUC(0-t) is the area under the concentration-time curve up to a stated or last time point. Read a high AUC(0-t) as high exposure. One may read the bioavailability as dose-corrected exposure relative to a reference, in per cent. High values mean much systemic uptake, low ones little systemic uptake. For `Cc1cc(C(=O)N[C@H]2CC/C(=C\c3cccc(Oc4ccc(C(F)(F)F)cn4)c3)CC2)cnc1N` (stereo not given), the IC50 was more than 12.5 µM on Cytochrome P450 1A2, 0.0092 µM in data set [5], 9.2 µM on Cytochrome P450 2C9 and more than 12.5 µM against Cytochrome P450 2C19. For the same molecule, the figures for the concentration at 4 h in data set [1] and in data set [3] were 37 µM and 3.1 µM, respectively. The concentration at 32 h in data set [2] was 20 µM; in [8], 1.2 µM. In addition, the concentration at 2 h in [4] worked out at 41 µM; in data set [7], 6.7 µM; in data set [10] it was 2 µM. The molecule further came in with a Cmax in data set [6] of 6.7 µM. The Vd in data set [9] was determined as 1.2 L/kg. The AUC(0-t) at 48 h in [11] is 80.1 µM·h; in [12], 109 µM·h; in [14], 166 µM·h; in data set [15], 1130 µM·h. Moreover, the bioavailability in data set [13] came out at 46%. The concentration at 48 h came out at 9.1 µM in data set [16], 1.1 µM in data set [18] and 0.6 µM in data set [19]. The Kp in data set [17] was 0.5. Also, the concentration at 24 h in data set [20] was determined as 1.3 µM. The concentration at 8 h in data set [21] stood at 37 µM.
With `Nc1ncc(C(=O)N[C@H]2CC/C(=C\c3cccc(Oc4ccc(C(F)(F)F)cn4)c3)CC2)cn1` (stereo not given), the IC50 at Cytochrome P450 1A2 was more than 12.5 µM; in data set [5], 0.0062 µM; at Cytochrome P450 2C9, 6.5 µM; on Cytochrome P450 2C19, more than 12.5 µM. Moreover, the results for the concentration at 4 h in [1] and in [3] were 38 µM and 6.3 µM, respectively. The concentration at 32 h in data set [2] came to 13 µM; in data set [8] it was 2.3 µM. Further, the concentration at 2 h in data set [4] was 31 µM; in data set [7], 7.2 µM; in [10], 6.5 µM. The molecule further returned a Cmax in [6] of 7.8 µM. For the same molecule, the Vd in data set [9] worked out at 0.8 L/kg. Besides, the AUC(0-t) at 48 h in data set [11] stood at 192 µM·h; in data set [12], 155 µM·h; in data set [14], 237 µM·h; in data set [15], 1020 µM·h. Also, in [13], the bioavailability is 46%. The concentration at 48 h was 8.9 µM in data set [16], 1.3 µM in data set [18] and 1.1 µM in data set [19]. In [17], the Kp amounted to 0.8. In [20], the concentration at 24 h was found to be 4.4 µM. Besides, the concentration at 8 h in data set [21] was 34 µM.
Take `O=C(N[C@H]1CC/C(=C\c2cccc(Oc3ccc(C(F)(F)F)cn3)c2)CC1)c1cccnc1` (stereo not given): the IC50 at Cytochrome P450 1A2 was more than 10 µM; against Cytochrome P450 2C9, 2.7 µM; on Cytochrome P450 2C19, 4.6 µM. Also, the concentration at 4 h in [1] was determined as 43 µM; in [3] it was 6 µM. The concentration at 2 h amounted to 52 µM in [4], 7.2 µM in data set [7] and 6.1 µM in data set [10]. Moreover, in [6], the highest level (Cmax) was 7.2 µM. In data set [9], the Vd is 0.9 L/kg. Further, the AUC(0-t) at 48 h in data set [11] worked out at 84 µM·h; in data set [12], 47 µM·h; in [14] it was 55 µM·h; in data set [15] it was 580 µM·h. Also, the bioavailability in data set [13] came to 35%. Moreover, the Kp in [17] came to 1.5. In [20], the concentration at 24 h was determined as 1.1 µM. The concentration at 8 h in [21] stood at 32 µM.
With `Nc1ccc(C(=O)N[C@H]2CC/C(=C\c3cccc(Oc4ccc(C(F)(F)F)cn4)c3)CC2)cn1` (stereo not given), the concentration for half-maximal inhibition (IC50) is more than 12.5 µM against Cytochrome P450 1A2, 0.0116 µM in [5], 3.4 µM at Cytochrome P450 2C9 and 9.1 µM on Cytochrome P450 2C19. Moreover, the results for the concentration at 4 h in [1] and in data set [3] were 69.7 µM and 4.5 µM, respectively. For the same molecule, the concentration at 32 h in data set [2] came out at 26.5 µM; in data set [8], 1.9 µM. In addition, the concentration at 2 h in [4] came to 72.6 µM; in data set [7], 8.8 µM; in [10], 5.1 µM. In data set [6], this molecule showed a Cmax of 8.8 µM. In addition, in [9], the Vd amounted to 0.6 L/kg. The AUC(0-t) at 48 h in data set [11] worked out at 135 µM·h; in [12], 152 µM·h; in data set [14], 212 µM·h; in data set [15], 1950 µM·h. In addition, the bioavailability in [13] came out at 42%. Besides, the values for the concentration at 48 h in data set [16], in data set [18] and in [19] were 16.2 µM, 1 µM and 0.7 µM, respectively. For the same molecule, the Kp in [17] turned out to be 0.6. Further, in data set [20], the concentration at 24 h was 2.5 µM. For the same molecule, the concentration at 8 h in data set [21] stood at 74.9 µM.
